Data as given in patent US20220401514A1, “ANTIMICROBIAL, BACTERIOPHAGE-DERIVED POLYPEPTIDES AND THEIR USE AGAINST GRAM-NEGATIVE AND ACID-FAST BACTERIA” (CONTRAFECT CORPORATION, priority 2019, published 2022).

Legend:
[1] = system: carbapenem-resistant P. aeruginosa clinical isolate CFS-1292; test: MIC by modified CLSI broth microdilution against P. aeruginosa CFS-1292 (CAA, CAA + human serum); assay type: cell-based, Pseudomonas aeruginosa; conditions: for MIC (μg/mL) against CFS-1292 in 100% CAA (1st run/2nd run): 1st run or single value
[2] = Stability assessment in 100% CAA; assay type: in vitro ADME; parameters: unit not given beside the values
Description: Stability was assessed after incubation in 100% human serum at 37° C. after 10 minutes, 1 hour, and 2 hours.
Stability assessment was further conducted in 100% CAA and rabbit serum using the same methodology discussed above.

[3] = system: M. smegmatis; test: 45 hr MIC against M. smegmatis (NTM), Mueller Hinton broth; assay type: cell-based, Mycobacterium smegmatis; conditions: M. smegmatis MC^2 155, Run #1
[4] = system: Enterobacter cloacae; test: microbe, parasite or virus in culture; assay type: cell-based; conditions: for MIC: Enterobacter cloacae ATCC 13047, CAA supplemented with human serum
Description: (§1) Determination of Minimal Inhibitory Concentrations (MIC).
(§2) Additional MIC testing was performed for several peptides against the ESKAPE pathogens Escherichia coli, Enterobacter cloacae, Klebsiella pneumoniae, and Acinetobacter baumannii, in CAA supplemented with human serum (Table D).

[5] = system: Escherichia coli; test: microbe, parasite or virus in culture; assay type: cell-based; conditions: for MIC: Escherichia coli ATCC 25922, CAA supplemented with human serum
Description: as §1, §2

[6] = system: Klebsiella pneumoniae; assay type: cell-based; conditions: for MIC: Klebsiella pneumoniae HM-44, CAA supplemented with human serum; for MIC50 / MIC100 / MIC Range: K. pneumoniae isolates (n per peptide in table)
Description: as §1, §2

[7] = system: Acinetobacter baumannii; test: microbe, parasite or virus in culture; assay type: cell-based; conditions: for MIC: Acinetobacter baumannii ATCC BAA 747, CAA supplemented with human serum; for MIC50 / MIC100 / MIC Range: A. baumannii isolates (n per peptide in table)
[8] = system: Pseudomonas aeruginosa; test: microbe, parasite or virus in culture; assay type: cell-based; conditions: P. aeruginosa isolates (n per peptide in table)
[9] = system: S. maltophilia; test: MIC against S. maltophilia isolates; assay type: cell-based, Stenotrophomonas maltophilia; conditions: S. maltophilia isolates (n per peptide in table)
Description: as §1
In addition to the results discussed above in Example 3, further testing was conducted on several Chp peptides. MIC values were determined against different species, including P. aeruginosa, K. pneumoniae, A. baumannii, E. cloacae, E. coli, and S. maltophilia, and the results are presented below in Tables 40-45, wherein n=number of isolates tested for each species and MIC is measured as μg/mL.

[10] = system: carbapenem-resistant bacterial strains; test: organism not typed; assay type: cell-based
Source text: as §1

[11] = system: P. aeruginosa (CFS 1292); test: microbe, parasite or virus in culture; assay type: cell-based, Pseudomonas aeruginosa
[12] = carbapenem-resistant isolate PA19
[13] = carbapenem-resistant isolate PA20
[14] = carbapenem-resistant isolate PA21
[15] = carbapenem-resistant isolate PA22
[16] = carbapenem-resistant isolate PA23
[17] = carbapenem-resistant isolate PA24
[18] = carbapenem-resistant isolate WLC-452
[19] = E. cloacae isolates (n per peptide in table)
[20] = E. coli isolates (n per peptide in table)

Row | Molecule | MIC (μg/mL) against CFS-1292 in 100% CAA (1st run/2nd run) [1] [µg/mL] | MIC (μg/mL) against CFS-1292 in CAA + […] human serum [1] [µg/mL] | MIC (100% CAA) [2] | 45 hr MIC [3] [µg/mL] | MIC [4] [µg/mL] | MIC [5] [µg/mL] | MIC [6] [µg/mL] | MIC [7] [µg/mL] | MIC50 [8] [µg/mL] | MIC100 [8] [µg/mL] | MIC50 [6] [µg/mL] | MIC100 [6] [µg/mL] | MIC Range [6] [µg/mL] | MIC50 [7] [µg/mL] | MIC100 [7] [µg/mL] | MIC50 [9] [µg/mL] | MIC100 [9] [µg/mL] | MIC Range [9] [µg/mL] | MIC [10, 12] [µg/mL] | MIC [10, 13] [µg/mL] | also measured
1 | MSSTLCRWAVKALRCTRVYKEFIWKPLVALSYVTLYLLSSVFLSQLSYPIGSWAV [Lvp1] | >64 | 0.5 | >64 | >128 |  |  |  |  |  |  |  |  |  |  |  |  |  |  |  |  | MIC (μg/mL) against CFS-1292 in CAA + […] human serum ([1]; listed as Lvp1 + DTT): 2 µg/mL
2 | MAKKMTKGKDRQVFRKTADRTKKLNVRPLLYRGGIRL [Chp11] | 16 | 4 | 16 | 32 | 32 | 2 | 16 | 32 |  |  |  |  |  |  |  |  |  |  |  |  | 
3 | MKRRKMTRKGSKRLFTATADKTKSINTAPPPMRGGIRL [Chp7] | 16 | 1 | 8 | 128 | >32 | 8 | 1 | >32 |  |  |  |  |  |  |  |  |  |  |  |  | 
4 | MSKKASRKSFTKGAVKVHKKNVPTRVPMRGGIRL [Gkh2] | 16 |  | 16 | 32 | 8 | 1 | 16 | 8 |  |  |  |  |  |  |  |  |  |  |  |  | 
5 | MRKRMSKRVDKKVFRRTAASAKKINIDPKIYRGGIRL [Osp1] | 16 |  | 4 | 32 | 32 | 0.5 | 0.125 | 32 | >8 | >8 | >8 | >8 | >8 | 8 | 8 | >8 | >8 | >8 | >8 | >8 | MIC Range [8]: >8 µg/mL; MIC Range [7]: 2 to 8 µg/mL; MIC [10, 14]: >8 µg/mL; MIC [10, 15]: >8 µg/mL; MIC [10, 16]: >8 µg/mL; MIC [10, 17]: >8 µg/mL; MIC [10, 18]: 8 µg/mL
6 | MMKYRKKMSAKSSRKQFTKGAMKVKGKNFTKPMRGGIRL [Unp5] | 2 | 0.5 | 2 | 8 | 4 | 1 | 4 | 8 | >8 | >8 | >8 | >8 | >8 | 4 | 8 | >8 | >8 | >8 | 8 | >8 | MIC Range [7]: 1 to 8 µg/mL; MIC [10, 14]: >8 µg/mL; MIC [10, 15]: >8 µg/mL; MIC [10, 16]: >8 µg/mL; MIC [10, 17]: >8 µg/mL; MIC [10, 18]: >8 µg/mL
7 | NC[C@H]1O[C@H](O[C@H]2[C@H](O)[C@@H](O[C@H]3O[C@H](CO)[C@@H](O)[C@H](N)[C@H]3O)[C@H](N)C[C@@H]2N)[C@H](N)C[C@@H]1O [Tobra] |  |  |  |  |  |  |  |  |  |  |  |  |  |  |  |  |  |  |  |  | Passage MIC Passage #1 (Untreated) ([11]; Passage #1, MIC of agent on untreated culture): 0.125 µg/mL; Passage MIC Passage #1 ([11]; Passage #1, colonies from spot dilution, duplicates (1),(2)): 0.5 µg/mL; Passage MIC Passage #2 (Untreated) ([11]; Passage #2, MIC of agent on untreated culture): 0.125 µg/mL; Passage MIC Passage #2 ([11]; Passage #2, colonies from spot dilution, duplicates (1),(2)): 0.5 µg/mL; Passage MIC Passage #3 (Untreated) ([11]; Passage #3, MIC of agent on untreated culture): 0.125 µg/mL; Passage MIC Passage #3 ([11]; Passage #3, colonies from spot dilution, duplicates (1),(2)): 0.5 µg/mL; Passage MIC Passage #4 (Untreated) ([11]; Passage #4, MIC of agent on untreated culture): 0.125 µg/mL; Passage MIC Passage #4 ([11]; Passage #4, colonies from spot dilution, duplicates (1),(2)): 0.5 µg/mL; Passage MIC Passage #5 (Untreated) ([11]; Passage #5, MIC of agent on untreated culture): 0.125 µg/mL; Passage MIC Passage #5 ([11]; Passage #5, colonies from spot dilution, duplicates (1),(2)): 1 µg/mL
8 | MARRKKMKGKRDKRVFKQTANKTKAINISPKNMRGGTRL [Unp3] | 8 |  | 4 | 32 | 8 | 0.5 | 4 | 2 | >8 | >8 | >8 | >8 | >8 | >8 | >8 | >8 | >8 | >8 | 8 | >8 | MIC50 [4, 19]: >8 µg/mL; MIC100 [4, 19]: >8 µg/mL; MIC Range [4, 19]: >8 µg/mL; MIC50 [5, 20]: >8 µg/mL; MIC100 [5, 20]: >8 µg/mL; MIC [10, 14]: >8 µg/mL; MIC [10, 15]: >8 µg/mL; MIC [10, 16]: >8 µg/mL; MIC [10, 17]: >8 µg/mL; MIC [10, 18]: >8 µg/mL
